According to ChEMBL document CHEMBL3400066, “2-(Isopropylamino)thieno[3,2-d]pyrimidin-4(3H)-one derivatives as selective phosphodiesterase 7 inhibitors with potent in vivo efficacy” (Bioorg Med Chem Lett, 2015):
In brackets after ≈: the same amount, converted by molar mass.

target: High affinity 3',5'-cyclic-AMP phosphodiesterase 7A (Homo sapiens, UniProt Q13946); assay: Inhibition of human PDE7A expressed in insect cells assessed as inhibition of [3H]cAMP to [3H]AMP hydrolysis after 30 mins by scintillation counting
Sequence (Q13946 whole entry): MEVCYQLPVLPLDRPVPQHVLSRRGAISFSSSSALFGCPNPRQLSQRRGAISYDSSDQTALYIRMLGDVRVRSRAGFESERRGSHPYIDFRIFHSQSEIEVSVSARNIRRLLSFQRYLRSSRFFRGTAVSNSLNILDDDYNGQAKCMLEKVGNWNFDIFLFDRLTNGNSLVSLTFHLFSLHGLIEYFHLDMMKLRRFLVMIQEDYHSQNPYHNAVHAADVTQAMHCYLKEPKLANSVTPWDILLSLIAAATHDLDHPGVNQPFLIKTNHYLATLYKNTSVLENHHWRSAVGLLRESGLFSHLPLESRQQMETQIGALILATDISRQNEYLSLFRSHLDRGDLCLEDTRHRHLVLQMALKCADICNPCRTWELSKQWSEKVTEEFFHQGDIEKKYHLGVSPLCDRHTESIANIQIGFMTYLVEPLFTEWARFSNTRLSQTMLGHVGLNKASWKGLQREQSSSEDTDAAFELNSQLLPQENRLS

Compound	IC50
CCn1c(NC(C)C)nc2c(C3CCN(C(=O)c4cccc(C)n4)C3)csc2c1=O (stereo not given)	3.3 nM
CCNc1nc2ccsc2c(=O)n1CC	2900 nM
CCCNc1nc2ccsc2c(=O)n1CC	1400 nM
CCn1c(CC(C)C)nc2ccsc2c1=O	4700 nM
CCn1c(NC(C)(C)C)nc2ccsc2c1=O	1500 nM
CCn1c(NC2CC2)nc2ccsc2c1=O	2600 nM
CCn1c(NC2CCC2)nc2ccsc2c1=O	300 nM
CCn1c(NC2CCOCC2)nc2ccsc2c1=O	430 nM
CCn1c(N[C@H]2CC[C@H](O)CC2)nc2ccsc2c1=O	2300 nM
CCn1c(N[C@H]2CC[C@H](C(=O)OC)CC2)nc2ccsc2c1=O	2100 nM
CCn1c(N[C@H]2CC[C@H](C(=O)O)CC2)nc2ccsc2c1=O	1300 nM
CCn1c(NC(C)C)nc2c(-c3cccnc3)csc2c1=O	4.4 nM
CCn1c(NC(C)C)nc2c(-c3ccco3)csc2c1=O	12 nM
CCn1c(NC(C)C)nc2c(-c3sc(C)nc3C)csc2c1=O	6.4 nM
CCn1c(NC(C)C)nc2c(-c3ccnc(OC)c3)csc2c1=O	4.6 nM
CCn1c(NC(C)C)nc2c(-c3cncnc3)csc2c1=O	7.6 nM
CCn1c(NC(C)C)nc2c(C3CCNCC3)csc2c1=O	190 nM
CCn1c(NC(C)C)nc2c(C3CCN(C(C)C)CC3)csc2c1=O	170 nM
CCn1c(NC(C)C)nc2c(C3CCN(c4ccccn4)CC3)csc2c1=O	6.8 nM
CCn1c(NC(C)C)nc2c(C3CCN(C(C)=O)CC3)csc2c1=O	20 nM
CCn1c(NC(C)C)nc2c(C3CCCN(C(C)=O)C3)csc2c1=O (stereo not given)	5.1 nM
CCn1c(NC(C)C)nc2c(C3CCN(C(C)=O)C3)csc2c1=O (stereo not given)	15 nM
CCn1c(NC(C)C)nc2c(C3CCN(C(=O)C(C)C)C3)csc2c1=O (stereo not given)	8.4 nM
CCn1c(NC(C)C)nc2c(C3CCN(C(=O)CC(C)C)C3)csc2c1=O (stereo not given)	8.1 nM
CCn1c(NC(C)C)nc2c(C3CCN(C(=O)c4ccccc4)C3)csc2c1=O (stereo not given)	1.5 nM
CCn1c(NC(C)C)nc2c(C3CCN(C(=O)c4ccccn4)C3)csc2c1=O (stereo not given)	2.7 nM
CCn1c(NC(C)C)nc2c(C3CCN(C(=O)c4ncccc4C)C3)csc2c1=O (stereo not given)	1.4 nM

target: 3',5'-cyclic-AMP phosphodiesterase 4B (Homo sapiens, UniProt Q07343); assay: Inhibition of human PDE4B expressed in insect cells assessed as inhibition of [3H]cAMP to [3H]AMP hydrolysis after 30 mins by scintillation counting
Sequence (Q07343 whole entry): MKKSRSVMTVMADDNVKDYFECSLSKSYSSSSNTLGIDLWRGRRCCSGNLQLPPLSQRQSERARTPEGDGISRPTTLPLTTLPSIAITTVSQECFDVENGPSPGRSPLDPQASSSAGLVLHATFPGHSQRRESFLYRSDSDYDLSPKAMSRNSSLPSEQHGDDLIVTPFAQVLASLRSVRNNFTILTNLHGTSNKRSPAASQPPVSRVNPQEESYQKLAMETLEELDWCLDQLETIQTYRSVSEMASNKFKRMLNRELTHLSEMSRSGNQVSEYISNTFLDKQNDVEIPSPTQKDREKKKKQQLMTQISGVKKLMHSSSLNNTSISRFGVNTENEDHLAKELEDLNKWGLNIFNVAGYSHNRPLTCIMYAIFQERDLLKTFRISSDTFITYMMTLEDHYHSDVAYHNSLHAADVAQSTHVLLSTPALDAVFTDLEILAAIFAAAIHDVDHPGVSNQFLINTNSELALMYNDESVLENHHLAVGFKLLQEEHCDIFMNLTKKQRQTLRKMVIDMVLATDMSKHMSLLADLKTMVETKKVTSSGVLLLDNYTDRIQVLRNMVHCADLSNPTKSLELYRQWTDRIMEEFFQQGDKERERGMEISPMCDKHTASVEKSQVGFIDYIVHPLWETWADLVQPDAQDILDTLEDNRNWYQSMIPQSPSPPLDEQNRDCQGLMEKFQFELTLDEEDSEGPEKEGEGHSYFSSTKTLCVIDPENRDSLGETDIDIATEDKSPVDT

Compound	IC50
CCn1c(NC(C)C)nc2c(C3CCN(C(=O)c4cccc(C)n4)C3)csc2c1=O (stereo not given)	46 nM
CCn1c(NC2CCC2)nc2ccsc2c1=O	4800 nM
CCn1c(NC2CCOCC2)nc2ccsc2c1=O	12000 nM
CCn1c(N[C@H]2CC[C@H](O)CC2)nc2ccsc2c1=O	24000 nM
CCn1c(NC(C)C)nc2c(-c3cccnc3)csc2c1=O	520 nM
CCn1c(NC(C)C)nc2c(-c3ccco3)csc2c1=O	550 nM
CCn1c(NC(C)C)nc2c(-c3sc(C)nc3C)csc2c1=O	200 nM
CCn1c(NC(C)C)nc2c(-c3ccnc(OC)c3)csc2c1=O	420 nM
CCn1c(NC(C)C)nc2c(-c3cncnc3)csc2c1=O	1100 nM
CCn1c(NC(C)C)nc2c(C3CCNCC3)csc2c1=O	14000 nM
CCn1c(NC(C)C)nc2c(C3CCN(C(C)C)CC3)csc2c1=O	25000 nM
CCn1c(NC(C)C)nc2c(C3CCN(c4ccccn4)CC3)csc2c1=O	440 nM
CCn1c(NC(C)C)nc2c(C3CCN(C(C)=O)CC3)csc2c1=O	1500 nM
CCn1c(NC(C)C)nc2c(C3CCCN(C(C)=O)C3)csc2c1=O (stereo not given)	560 nM
CCn1c(NC(C)C)nc2c(C3CCN(C(C)=O)C3)csc2c1=O (stereo not given)	1900 nM
CCn1c(NC(C)C)nc2c(C3CCN(C(=O)C(C)C)C3)csc2c1=O (stereo not given)	1400 nM
CCn1c(NC(C)C)nc2c(C3CCN(C(=O)CC(C)C)C3)csc2c1=O (stereo not given)	2300 nM
CCn1c(NC(C)C)nc2c(C3CCN(C(=O)c4ccccc4)C3)csc2c1=O (stereo not given)	380 nM
CCn1c(NC(C)C)nc2c(C3CCN(C(=O)c4ccccn4)C3)csc2c1=O (stereo not given)	200 nM
CCn1c(NC(C)C)nc2c(C3CCN(C(=O)c4ncccc4C)C3)csc2c1=O (stereo not given)	140 nM

test system: not listed separately; assay: Solubility of the compound in phosphate buffer at pH 6.8; type: physicochemical

Compound	solubility
CCn1c(NC(C)C)nc2c(C3CCN(C(=O)c4cccc(C)n4)C3)csc2c1=O (stereo not given)	150 µg/mL (≈ 352 µM)
CCNc1nc2ccsc2c(=O)n1CC	240 µg/mL (≈ 1070 µM)
CCCNc1nc2ccsc2c(=O)n1CC	69 µg/mL (≈ 291 µM)
CCn1c(NC(C)C)nc2ccsc2c1=O	190 µg/mL (≈ 801 µM)
CCn1c(NC(C)(C)C)nc2ccsc2c1=O	3.7 µg/mL (≈ 14.7 µM)
CCn1c(NC2CC2)nc2ccsc2c1=O	430 µg/mL (≈ 1830 µM)
CCn1c(NC2CCC2)nc2ccsc2c1=O	6.3 µg/mL (≈ 25.3 µM)
CCn1c(NC2CCOCC2)nc2ccsc2c1=O	37 µg/mL (≈ 132 µM)
CCn1c(N[C@H]2CC[C@H](O)CC2)nc2ccsc2c1=O	74 µg/mL (≈ 252 µM)
CCn1c(N[C@H]2CC[C@H](C(=O)OC)CC2)nc2ccsc2c1=O	13 µg/mL (≈ 38.8 µM)
CCn1c(N[C@H]2CC[C@H](C(=O)O)CC2)nc2ccsc2c1=O	450 µg/mL (≈ 1400 µM)
CCn1c(NC(C)C)nc2c(-c3cccnc3)csc2c1=O	5.8 µg/mL (≈ 18.4 µM)
CCn1c(NC(C)C)nc2c(-c3ccco3)csc2c1=O	0.1 µg/mL (≈ 0.33 µM)
CCn1c(NC(C)C)nc2c(-c3sc(C)nc3C)csc2c1=O	4.5 µg/mL (≈ 12.9 µM)
CCn1c(NC(C)C)nc2c(-c3ccnc(OC)c3)csc2c1=O	2.4 µg/mL (≈ 6.97 µM)
CCn1c(NC(C)C)nc2c(-c3cncnc3)csc2c1=O	18 µg/mL (≈ 57.1 µM)
CCn1c(NC(C)C)nc2c(C3CCNCC3)csc2c1=O	1100 µg/mL (≈ 3430 µM)
CCn1c(NC(C)C)nc2c(C3CCN(C(C)C)CC3)csc2c1=O	350 µg/mL (≈ 965 µM)
CCn1c(NC(C)C)nc2c(C3CCN(C(C)=O)CC3)csc2c1=O	74 µg/mL (≈ 204 µM)
CCn1c(NC(C)C)nc2c(C3CCCN(C(C)=O)C3)csc2c1=O (stereo not given)	230 µg/mL (≈ 634 µM)
CCn1c(NC(C)C)nc2c(C3CCN(C(C)=O)C3)csc2c1=O (stereo not given)	470 µg/mL (≈ 1350 µM)
CCn1c(NC(C)C)nc2c(C3CCN(C(=O)C(C)C)C3)csc2c1=O (stereo not given)	130 µg/mL (≈ 345 µM)
CCn1c(NC(C)C)nc2c(C3CCN(C(=O)CC(C)C)C3)csc2c1=O (stereo not given)	15 µg/mL (≈ 38.4 µM)
CCn1c(NC(C)C)nc2c(C3CCN(C(=O)c4ccccc4)C3)csc2c1=O (stereo not given)	21 µg/mL (≈ 51.2 µM)
CCn1c(NC(C)C)nc2c(C3CCN(C(=O)c4ccccn4)C3)csc2c1=O (stereo not given)	38 µg/mL (≈ 92.3 µM)
CCn1c(NC(C)C)nc2c(C3CCN(C(=O)c4ncccc4C)C3)csc2c1=O (stereo not given)	64 µg/mL (≈ 150 µM)

target: cGMP-inhibited 3',5'-cyclic phosphodiesterase 3A (Homo sapiens, UniProt Q14432); assay: Inhibition of PDE3A (unknown origin)
Sequence (Q14432 whole entry): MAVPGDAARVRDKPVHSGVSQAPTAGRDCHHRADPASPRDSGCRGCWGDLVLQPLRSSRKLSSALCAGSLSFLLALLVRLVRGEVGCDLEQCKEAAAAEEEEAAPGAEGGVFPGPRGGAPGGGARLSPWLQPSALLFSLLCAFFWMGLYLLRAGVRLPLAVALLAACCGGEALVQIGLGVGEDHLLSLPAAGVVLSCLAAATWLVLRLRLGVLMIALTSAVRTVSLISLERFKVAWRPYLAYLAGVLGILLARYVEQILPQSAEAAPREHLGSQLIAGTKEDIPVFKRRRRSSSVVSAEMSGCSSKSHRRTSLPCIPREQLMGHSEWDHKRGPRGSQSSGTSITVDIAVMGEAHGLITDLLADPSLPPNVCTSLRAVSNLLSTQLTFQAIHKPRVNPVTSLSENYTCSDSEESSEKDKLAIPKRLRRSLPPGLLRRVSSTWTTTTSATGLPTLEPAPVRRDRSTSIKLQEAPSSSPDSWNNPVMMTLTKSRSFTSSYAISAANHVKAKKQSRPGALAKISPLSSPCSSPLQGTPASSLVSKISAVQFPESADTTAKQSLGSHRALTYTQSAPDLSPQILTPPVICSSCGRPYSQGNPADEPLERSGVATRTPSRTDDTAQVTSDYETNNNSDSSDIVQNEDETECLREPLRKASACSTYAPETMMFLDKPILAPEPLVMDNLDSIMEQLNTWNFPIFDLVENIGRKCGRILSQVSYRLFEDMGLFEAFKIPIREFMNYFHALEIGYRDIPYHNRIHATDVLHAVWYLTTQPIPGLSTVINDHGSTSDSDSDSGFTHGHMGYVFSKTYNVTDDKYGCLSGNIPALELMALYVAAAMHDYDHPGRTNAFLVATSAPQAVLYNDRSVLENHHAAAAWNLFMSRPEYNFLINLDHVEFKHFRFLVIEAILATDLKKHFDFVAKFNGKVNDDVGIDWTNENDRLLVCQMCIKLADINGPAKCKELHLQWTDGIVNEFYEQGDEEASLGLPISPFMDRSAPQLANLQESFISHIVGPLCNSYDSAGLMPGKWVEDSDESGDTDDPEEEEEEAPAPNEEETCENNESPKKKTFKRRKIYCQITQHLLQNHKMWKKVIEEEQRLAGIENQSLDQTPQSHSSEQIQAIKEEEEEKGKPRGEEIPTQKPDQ

Compound	IC50
CCn1c(NC(C)C)nc2c(C3CCN(C(=O)c4cccc(C)n4)C3)csc2c1=O (stereo not given)	1600 nM
CCn1c(NC(C)C)nc2c(C3CCN(C(=O)c4ccccn4)C3)csc2c1=O (stereo not given)	3300 nM
CCn1c(NC(C)C)nc2c(C3CCN(C(=O)c4ncccc4C)C3)csc2c1=O (stereo not given)	1300 nM

target: cGMP-specific 3',5'-cyclic phosphodiesterase (Homo sapiens, UniProt O76074); assay: Inhibition of PDE5A (unknown origin)

Compound	IC50
CCn1c(NC(C)C)nc2c(C3CCN(C(=O)c4cccc(C)n4)C3)csc2c1=O (stereo not given)	2300 nM
CCn1c(NC(C)C)nc2c(C3CCN(C(=O)c4ccccn4)C3)csc2c1=O (stereo not given)	3000 nM
CCn1c(NC(C)C)nc2c(C3CCN(C(=O)c4ncccc4C)C3)csc2c1=O (stereo not given)	3100 nM

test system: Mus musculus; assay: Antiinflammatory activity in ICR mouse ear edema model assessed as inhibition of TPA-induced edema at 1% W/V per ear administered topically 30 mins before TPA challenge; type: functional

Compound	inhibition (INH)
CCn1c(NC(C)C)nc2c(C3CCN(C(=O)c4cccc(C)n4)C3)csc2c1=O (stereo not given)	96%
CCn1c(NC(C)C)nc2c(C3CCN(C(=O)c4ccccn4)C3)csc2c1=O (stereo not given)	72%
CCn1c(NC(C)C)nc2c(C3CCN(C(=O)c4ncccc4C)C3)csc2c1=O (stereo not given)	77%

test system: Mus musculus; assay: Antiinflammatory activity in ICR mouse ear edema model assessed as inhibition of TPA-induced edema at 0.3 % W/V per ear administered topically 30 mins before TPA challenge; type: functional

Compound	inhibition (INH)
CCn1c(NC(C)C)nc2c(C3CCN(C(=O)c4cccc(C)n4)C3)csc2c1=O (stereo not given)	65%
CCn1c(NC(C)C)nc2c(C3CCN(C(=O)c4ccccn4)C3)csc2c1=O (stereo not given)	45%
CCn1c(NC(C)C)nc2c(C3CCN(C(=O)c4ncccc4C)C3)csc2c1=O (stereo not given)	62%

test system: Lymphocyte; assay: Inhibition of IL2 production in activated mouse lymphocytes after 3 hrs by ELISA; type: functional, cell-based

Compound	IC50
CCn1c(NC(C)C)nc2c(C3CCN(C(=O)c4cccc(C)n4)C3)csc2c1=O (stereo not given)	150 nM
CCn1c(NC(C)C)nc2c(C3CCN(C(C)C)CC3)csc2c1=O	> 3000 nM
CCn1c(NC(C)C)nc2c(C3CCN(c4ccccn4)CC3)csc2c1=O	> 3000 nM
CCn1c(NC(C)C)nc2c(C3CCN(C(C)=O)CC3)csc2c1=O	2000 nM
CCn1c(NC(C)C)nc2c(C3CCCN(C(C)=O)C3)csc2c1=O (stereo not given)	750 nM
CCn1c(NC(C)C)nc2c(C3CCN(C(=O)C(C)C)C3)csc2c1=O (stereo not given)	> 1000 nM
CCn1c(NC(C)C)nc2c(C3CCN(C(=O)CC(C)C)C3)csc2c1=O (stereo not given)	1800 nM
CCn1c(NC(C)C)nc2c(C3CCN(C(=O)c4ccccc4)C3)csc2c1=O (stereo not given)	760 nM
CCn1c(NC(C)C)nc2c(C3CCN(C(=O)c4ccccn4)C3)csc2c1=O (stereo not given)	290 nM
CCn1c(NC(C)C)nc2c(C3CCN(C(=O)c4ncccc4C)C3)csc2c1=O (stereo not given)	270 nM
